Measured values reported in paper PMC5090206, “Fluselenamyl: A Novel Benzoselenazole Derivative for PET Detection of Amyloid Plaques (Aβ) in Alzheimer’s Disease” (Scientific Reports, 2016).

Experiments:
[1] = biological target: cortical Aβ plaques (Homo sapiens, UniProt P05067); assay: In vitro autoradiography of AD frontal cortex sections; assay type: binding
Method: Literature precedents indicate the presence of at least three different binding sites, characterized as BS1, BS2 and BS3 on the Aβ fibrils in vitro[24] and extracts from AD homogenates. […] Overall, these investigations indicate that different PET tracers may be beneficial to better understand Aβ pathophysiology in vivo. […] Further, to evaluate ability of [^18F]-9 for labeling Aβ in autopsy confirmed human brain sections, autoradiography and immunohistochemical correlations were also performed.
(§1) Scientific Reports Version of August 4, 2016
Autoradiography of Human Brain Sections and Immunohistochemistry Correlation Autoradiography and immunohistochemistry (IHC) were performed as previously described14 with minor modifications. Briefly, a sample of frozen AD frontal cortex was sectioned using a TBS Minotome PLUS Cryostat set at a thickness of 12 microns. The tissue sections were thaw-mounted onto Superfrost Plus (Fisherbrand 12-550-15) microscope slides and allowed to air dry for 10–15 min prior to storage at -80 °C. […]
Autoradiography images were obtained on GE Typhoon System FLA-9500 (Tokyo, Japan) at 25 µm resolution. […] IHC images were obtained on a NanoZoomer 2.0-HT System ([…]) at 20x resolution with DAPI and TRITC fluorescence filters using NDP.scan 2.5 software ([…]). […]

[2] = biological target: Aβ plaques (Homo sapiens, UniProt P05067); assay: Histological staining of human AD brain tissue sections
Aβ plaques, sequence (P05067 672-711 limits assumed): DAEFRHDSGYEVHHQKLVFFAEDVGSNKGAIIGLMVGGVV
Method: To further assess ability of the 5 to label Aβ plaques in human brain, staining experiments were also performed with postmortem tissues from clinically-characterized AD patients[35][36] As a positive control, a highly specific anti-Aβ antibody (10D5, Eli Lilly, Indianapolis, IN) was used to ascertain the presence of Aβ plaques (Fig. 4A), using well-established procedures for assessment of Aβ plaques in postmortem brain[37]. […] Noticeably, 5 also indicated proficient and distinct labeling of plaque and leptomeningeal vessels (cerebral amyloid angiopathy; CAA) (Fig. 4B). […] This high specificity of 5 for Aβ could be attributed to presence of a benzoselenazole ring within Fluselenamyl. Overall, the ability and sensitivity of 5 to detect diffuse plaques and specificity for AD could represent an important advancement to enable PET imaging of mildly demented individuals, prior to onset of symptoms.
as §1
µm) were cut in the coronal plane on a freezing sliding microtome and stored at -20°C. 7,8 Tissue was stained as free-floating sections. Prior to staining, tissue sections were permeabilized with PBS-Tritron-X-100 (0.25%) for 30 minutes, and then blocked with 1% non-fat dry milk in PBS-Ttiton-X-100 for 60 minutes.
Hippocampus tissue sections of APP+/-/PS1+/- and age-matched control BL/6 (WT, SI Figure 3) were incubated with fluorescent molecule 5 (100 nM dissolved in 1% ethanol in PBS) for 60 minutes, and washed 3-times with PBS-Triton-X-100.9 Thereafter, tissue sections were incubated with mouse-anti-Aβ (mHJ3.4) 7 that was directly conjugated to Alexa 568 for 90 minutes and washed 3-times with PBS-Triton-X-100.
Tissue sections were mounted onto SuperFrost Plus slides, dried overnight at room temperature, and then sealed with Fluoromount G (Southern Biotech, Birmingham, AL). […]
other neurodegenerative diseases (SI, Figure 4A & 4B). Sections were visualized, processed, and analyzed using a Pascal confocal microscope. […]

cortical Aβ plaques, sequence (P05067 672-711 limits assumed): as above

Row | Structure (SMILES) | labeling in autoradiography ([1]; 2 nM, 60 min, AD frontal cortex sections (12 μm)) | labeling of Aβ plaques in frontal lobe tissue sections ([2]; 2 μM, person with AD) | staining of diffuse plaques ([2]; AD frontal lobe sections) | effect on [18F]-9 binding in autoradiography ([1]; 1 μM cold ligand with 2 nM [18F]-9)
1 | CN(C)c1ncc(/C=C\c2nc3cc(OCC[18F])ccc3[se]2)cn1 [[^18F]-9] | showed labeling of cortical Aβ plaques |  |  | 
2 | CN(C)c1ncc(/C=C\c2nc3cc(OCCF)ccc3[se]2)cn1 [compound 5, (Z)-5-(2-(5-(2-fluoroethoxy)benzo[d][1,3]selenazol-2-yl)vinyl)-N,N-dimethylpyrimidin-2-amine] |  | strikingly distinct labeling of Aβ plaques | labeling of numerous diffuse Aβ plaques | binding was inhibited
